Measurements reported in patent US10870647B2, “Imidazopyridine derivative, method for preparing same, and pharmaceutical composition containing same as active ingredient for preventing or treating cancer” (DAEGU-GYEONGBUK MEDICAL INNOVATION FOUNDATION, priority 2016, dated 2020).

What was measured:
Assay in all cases: Kinase selectivity, scanMAX Kinase assay panel (DiscoverX), % control at 1 uM
Format in all cases: binding
[1] = target: T1, scanMAX Kinase assay panel (Plasmodium falciparum, UniProt P61075); conditions: PFPK5 (P. falciparum); 1 uM; read-out: Percent Control (%)
T1 construct: purchased DiscoverX
Method in brief: (§1)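 Each kinase was first exposed to the test compound at 1 uM in DMSO. Signal was then normalised to positive and negative controls to give % control. Finally, any enzyme showing <35% control was judged inhibited.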

[2] = target: T2, scanMAX Kinase assay panel (Homo sapiens, UniProt P35590); conditions: TIE1; 1 uM; read-out: Percent Control (%)
T2 construct: purchased DiscoverX
Method in brief: as §1

[3] = target: T3, scanMAX Kinase assay panel (Homo sapiens, UniProt Q06187); conditions: BTK; 1 uM; read-out: Percent Control (%)
T3 construct: purchased DiscoverX
Method in brief: as §1

[4] = target: T4, scanMAX Kinase assay panel (Homo sapiens, UniProt Q96PN8); conditions: TSSK3; 1 uM; read-out: Percent Control (%)
T4 construct: purchased DiscoverX
T4 sequence (Q96PN8 1-268): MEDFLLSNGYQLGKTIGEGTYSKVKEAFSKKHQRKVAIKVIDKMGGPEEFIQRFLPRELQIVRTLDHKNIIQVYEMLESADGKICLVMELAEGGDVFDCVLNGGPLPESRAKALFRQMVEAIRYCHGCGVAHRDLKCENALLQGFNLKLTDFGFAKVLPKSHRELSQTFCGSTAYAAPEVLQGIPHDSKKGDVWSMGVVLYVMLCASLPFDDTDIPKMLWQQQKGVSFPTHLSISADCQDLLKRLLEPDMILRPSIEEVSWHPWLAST
Method in brief: as §1

[5] = target: T5, scanMAX Kinase assay panel (Homo sapiens, UniProt O96013); conditions: PAK4; 1 uM; read-out: Percent Control (%)
T5 construct: purchased DiscoverX
Method in brief: as §1

[6] = target: T6, scanMAX Kinase assay panel (Homo sapiens, UniProt P51813); conditions: BMX; 1 uM; read-out: Percent Control (%)
T6 construct: purchased DiscoverX
T6 sequence (P51813 1-675): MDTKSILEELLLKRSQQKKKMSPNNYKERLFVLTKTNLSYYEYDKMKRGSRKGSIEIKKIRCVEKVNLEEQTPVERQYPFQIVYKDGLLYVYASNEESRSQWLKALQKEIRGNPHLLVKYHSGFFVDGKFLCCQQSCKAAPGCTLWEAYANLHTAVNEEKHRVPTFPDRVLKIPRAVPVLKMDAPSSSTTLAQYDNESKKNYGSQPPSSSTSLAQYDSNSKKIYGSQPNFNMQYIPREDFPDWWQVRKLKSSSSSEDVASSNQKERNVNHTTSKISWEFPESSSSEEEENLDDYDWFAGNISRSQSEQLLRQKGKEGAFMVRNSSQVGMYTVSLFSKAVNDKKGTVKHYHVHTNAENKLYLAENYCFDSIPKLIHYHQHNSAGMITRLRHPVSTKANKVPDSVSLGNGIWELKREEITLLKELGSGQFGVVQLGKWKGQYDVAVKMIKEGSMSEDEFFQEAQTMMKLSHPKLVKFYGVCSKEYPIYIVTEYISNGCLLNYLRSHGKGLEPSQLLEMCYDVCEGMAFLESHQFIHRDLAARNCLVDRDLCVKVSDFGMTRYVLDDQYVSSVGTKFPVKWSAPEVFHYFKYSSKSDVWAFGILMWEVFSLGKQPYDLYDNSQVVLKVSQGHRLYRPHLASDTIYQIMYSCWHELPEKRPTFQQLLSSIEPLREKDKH
Method in brief: as §1

[7] = target: T7, scanMAX Kinase assay panel (Homo sapiens, UniProt P00519, M351T); conditions: ABL1 (M351T)-phosphorylated; 1 uM; read-out: Percent Control (%)
T7 construct: purchased DiscoverX
Method in brief: as §1

[8] = target: T8, scanMAX Kinase assay panel (Homo sapiens, UniProt Q14289); conditions: PYK2; 1 uM; read-out: Percent Control (%)
T8 construct: purchased DiscoverX
Method in brief: as §1

[9] = target: T9, scanMAX Kinase assay panel (Homo sapiens, UniProt O15075); conditions: DCAMKL1; 1 uM; read-out: Percent Control (%)
T9 construct: purchased DiscoverX
Method in brief: as §1

[10] = target: T10, scanMAX Kinase assay panel (Homo sapiens, UniProt Q13470); conditions: TNK1; 1 uM; read-out: Percent Control (%)
T10 construct: purchased DiscoverX
T10 sequence (Q13470 1-666): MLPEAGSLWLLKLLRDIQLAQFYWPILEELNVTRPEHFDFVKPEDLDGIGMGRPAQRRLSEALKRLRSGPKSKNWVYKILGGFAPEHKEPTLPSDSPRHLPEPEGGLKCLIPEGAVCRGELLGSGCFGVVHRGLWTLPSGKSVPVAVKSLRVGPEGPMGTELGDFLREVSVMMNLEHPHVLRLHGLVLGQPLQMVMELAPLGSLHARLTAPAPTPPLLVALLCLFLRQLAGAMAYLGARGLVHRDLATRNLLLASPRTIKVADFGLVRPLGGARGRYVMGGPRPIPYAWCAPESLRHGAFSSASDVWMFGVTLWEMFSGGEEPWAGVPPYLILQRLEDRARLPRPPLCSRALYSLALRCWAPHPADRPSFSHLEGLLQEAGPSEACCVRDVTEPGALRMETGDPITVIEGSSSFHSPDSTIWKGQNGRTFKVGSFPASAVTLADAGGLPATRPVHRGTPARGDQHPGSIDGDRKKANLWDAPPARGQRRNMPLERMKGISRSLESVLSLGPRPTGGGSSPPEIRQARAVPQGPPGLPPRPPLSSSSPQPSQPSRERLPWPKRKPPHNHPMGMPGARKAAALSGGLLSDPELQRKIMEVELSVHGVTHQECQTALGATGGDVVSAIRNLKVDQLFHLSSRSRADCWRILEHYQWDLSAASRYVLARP
Method in brief: as §1

[11] = target: T11, scanMAX Kinase assay panel (Homo sapiens, UniProt Q13523); conditions: PRP4; 1 uM; read-out: Percent Control (%)
T11 construct: purchased DiscoverX
Method in brief: as §1

[12] = target: T12, scanMAX Kinase assay panel (Homo sapiens, UniProt Q96GD4); conditions: AURKB; 1 uM; read-out: Percent Control (%)
T12 construct: purchased DiscoverX
Method in brief: as §1

[13] = target: T13, scanMAX Kinase assay panel (Homo sapiens, UniProt P42336, E542K); conditions: PIK3CA (E542K); 1 uM; read-out: Percent Control (%)
T13 construct: purchased DiscoverX
Method in brief: as §1

T2 sequence (P35590 22-1138): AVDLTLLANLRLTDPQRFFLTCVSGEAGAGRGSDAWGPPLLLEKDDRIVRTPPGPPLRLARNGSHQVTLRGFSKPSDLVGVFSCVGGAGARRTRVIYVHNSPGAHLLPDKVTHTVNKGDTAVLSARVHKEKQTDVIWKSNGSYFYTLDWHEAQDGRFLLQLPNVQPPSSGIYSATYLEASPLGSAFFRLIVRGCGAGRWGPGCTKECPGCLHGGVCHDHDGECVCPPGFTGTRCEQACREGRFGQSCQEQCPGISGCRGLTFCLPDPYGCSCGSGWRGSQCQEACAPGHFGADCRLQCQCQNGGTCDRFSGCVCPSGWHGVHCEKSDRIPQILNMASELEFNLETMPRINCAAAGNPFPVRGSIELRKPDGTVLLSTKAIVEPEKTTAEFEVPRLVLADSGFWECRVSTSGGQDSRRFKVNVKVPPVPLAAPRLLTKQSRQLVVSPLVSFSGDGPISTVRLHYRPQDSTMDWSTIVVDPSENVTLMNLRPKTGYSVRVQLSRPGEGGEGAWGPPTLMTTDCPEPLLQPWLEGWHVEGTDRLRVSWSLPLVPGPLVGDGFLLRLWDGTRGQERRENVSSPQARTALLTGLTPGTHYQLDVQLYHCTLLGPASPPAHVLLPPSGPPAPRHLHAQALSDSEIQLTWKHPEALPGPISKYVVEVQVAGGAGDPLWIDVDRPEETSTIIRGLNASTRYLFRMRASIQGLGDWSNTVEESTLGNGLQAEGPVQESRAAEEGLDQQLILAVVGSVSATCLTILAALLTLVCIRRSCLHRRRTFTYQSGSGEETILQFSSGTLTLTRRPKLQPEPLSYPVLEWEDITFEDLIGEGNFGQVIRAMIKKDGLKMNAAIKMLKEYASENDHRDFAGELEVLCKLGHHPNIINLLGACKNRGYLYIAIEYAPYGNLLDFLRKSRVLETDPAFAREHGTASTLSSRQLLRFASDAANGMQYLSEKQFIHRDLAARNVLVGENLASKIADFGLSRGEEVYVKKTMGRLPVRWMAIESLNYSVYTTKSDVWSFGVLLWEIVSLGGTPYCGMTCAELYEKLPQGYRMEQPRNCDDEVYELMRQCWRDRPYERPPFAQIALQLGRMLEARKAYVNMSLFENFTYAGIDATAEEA
T12 sequence (Q96GD4 whole entry): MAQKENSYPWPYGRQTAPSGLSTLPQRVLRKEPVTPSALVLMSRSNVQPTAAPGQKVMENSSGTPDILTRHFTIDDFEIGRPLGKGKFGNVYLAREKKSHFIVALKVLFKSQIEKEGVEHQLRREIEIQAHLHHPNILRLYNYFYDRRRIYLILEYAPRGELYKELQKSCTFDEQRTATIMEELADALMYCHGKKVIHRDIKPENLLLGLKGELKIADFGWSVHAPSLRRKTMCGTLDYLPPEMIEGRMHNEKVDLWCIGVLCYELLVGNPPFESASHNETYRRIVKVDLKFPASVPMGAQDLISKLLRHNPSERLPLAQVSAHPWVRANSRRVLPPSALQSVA
T8 sequence (Q14289 whole entry): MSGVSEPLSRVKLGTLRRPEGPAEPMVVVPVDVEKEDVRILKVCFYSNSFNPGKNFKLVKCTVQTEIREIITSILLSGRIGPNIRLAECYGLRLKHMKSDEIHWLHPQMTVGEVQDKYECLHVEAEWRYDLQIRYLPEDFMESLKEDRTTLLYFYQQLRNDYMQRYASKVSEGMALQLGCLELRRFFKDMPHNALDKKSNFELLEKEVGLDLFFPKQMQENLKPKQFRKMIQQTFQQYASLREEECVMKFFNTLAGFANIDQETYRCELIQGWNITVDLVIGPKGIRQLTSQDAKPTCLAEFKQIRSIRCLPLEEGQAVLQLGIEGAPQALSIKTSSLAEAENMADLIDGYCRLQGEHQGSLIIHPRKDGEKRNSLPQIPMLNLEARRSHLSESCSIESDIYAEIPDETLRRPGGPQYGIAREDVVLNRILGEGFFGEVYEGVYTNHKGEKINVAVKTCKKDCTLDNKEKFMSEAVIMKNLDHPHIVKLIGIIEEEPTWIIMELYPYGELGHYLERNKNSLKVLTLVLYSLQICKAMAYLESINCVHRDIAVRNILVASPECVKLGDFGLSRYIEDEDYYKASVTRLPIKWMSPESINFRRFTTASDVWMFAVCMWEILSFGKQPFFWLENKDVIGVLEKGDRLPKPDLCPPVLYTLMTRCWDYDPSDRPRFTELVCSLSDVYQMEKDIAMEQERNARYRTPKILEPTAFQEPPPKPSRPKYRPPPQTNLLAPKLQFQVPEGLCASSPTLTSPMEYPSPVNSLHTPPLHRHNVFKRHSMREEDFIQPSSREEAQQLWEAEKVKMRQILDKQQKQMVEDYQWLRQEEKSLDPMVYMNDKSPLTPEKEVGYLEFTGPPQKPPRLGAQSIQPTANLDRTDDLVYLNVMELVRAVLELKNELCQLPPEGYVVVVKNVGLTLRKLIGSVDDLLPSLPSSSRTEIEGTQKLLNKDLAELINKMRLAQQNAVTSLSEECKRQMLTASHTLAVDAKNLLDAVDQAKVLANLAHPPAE
T13 sequence (P42336 whole entry E542K): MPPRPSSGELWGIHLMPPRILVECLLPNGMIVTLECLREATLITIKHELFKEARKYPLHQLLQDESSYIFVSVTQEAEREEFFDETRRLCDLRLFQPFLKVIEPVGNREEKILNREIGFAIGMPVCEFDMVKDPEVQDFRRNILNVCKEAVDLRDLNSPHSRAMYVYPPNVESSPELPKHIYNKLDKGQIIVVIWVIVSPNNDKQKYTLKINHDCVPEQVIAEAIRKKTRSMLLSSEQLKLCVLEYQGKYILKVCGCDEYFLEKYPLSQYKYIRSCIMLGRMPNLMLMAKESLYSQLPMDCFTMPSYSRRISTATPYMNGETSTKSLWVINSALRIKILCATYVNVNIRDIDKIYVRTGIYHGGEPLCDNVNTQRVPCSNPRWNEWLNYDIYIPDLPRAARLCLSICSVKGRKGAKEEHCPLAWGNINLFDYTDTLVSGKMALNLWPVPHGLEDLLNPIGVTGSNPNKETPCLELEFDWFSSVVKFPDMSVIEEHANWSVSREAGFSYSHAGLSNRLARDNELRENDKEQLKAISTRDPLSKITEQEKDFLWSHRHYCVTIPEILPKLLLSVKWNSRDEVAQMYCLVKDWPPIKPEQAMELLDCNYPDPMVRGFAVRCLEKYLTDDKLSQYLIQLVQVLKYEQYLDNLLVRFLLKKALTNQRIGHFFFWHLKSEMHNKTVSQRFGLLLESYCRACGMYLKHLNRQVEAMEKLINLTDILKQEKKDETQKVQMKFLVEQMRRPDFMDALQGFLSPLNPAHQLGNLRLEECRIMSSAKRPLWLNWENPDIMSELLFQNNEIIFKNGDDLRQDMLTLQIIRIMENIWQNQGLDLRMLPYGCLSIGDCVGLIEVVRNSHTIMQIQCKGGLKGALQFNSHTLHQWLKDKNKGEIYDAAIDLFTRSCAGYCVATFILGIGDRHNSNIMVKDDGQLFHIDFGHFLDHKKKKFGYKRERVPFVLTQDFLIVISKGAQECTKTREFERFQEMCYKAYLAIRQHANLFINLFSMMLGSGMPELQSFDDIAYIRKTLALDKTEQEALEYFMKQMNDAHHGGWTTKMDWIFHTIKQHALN
T3 sequence (Q06187 whole entry): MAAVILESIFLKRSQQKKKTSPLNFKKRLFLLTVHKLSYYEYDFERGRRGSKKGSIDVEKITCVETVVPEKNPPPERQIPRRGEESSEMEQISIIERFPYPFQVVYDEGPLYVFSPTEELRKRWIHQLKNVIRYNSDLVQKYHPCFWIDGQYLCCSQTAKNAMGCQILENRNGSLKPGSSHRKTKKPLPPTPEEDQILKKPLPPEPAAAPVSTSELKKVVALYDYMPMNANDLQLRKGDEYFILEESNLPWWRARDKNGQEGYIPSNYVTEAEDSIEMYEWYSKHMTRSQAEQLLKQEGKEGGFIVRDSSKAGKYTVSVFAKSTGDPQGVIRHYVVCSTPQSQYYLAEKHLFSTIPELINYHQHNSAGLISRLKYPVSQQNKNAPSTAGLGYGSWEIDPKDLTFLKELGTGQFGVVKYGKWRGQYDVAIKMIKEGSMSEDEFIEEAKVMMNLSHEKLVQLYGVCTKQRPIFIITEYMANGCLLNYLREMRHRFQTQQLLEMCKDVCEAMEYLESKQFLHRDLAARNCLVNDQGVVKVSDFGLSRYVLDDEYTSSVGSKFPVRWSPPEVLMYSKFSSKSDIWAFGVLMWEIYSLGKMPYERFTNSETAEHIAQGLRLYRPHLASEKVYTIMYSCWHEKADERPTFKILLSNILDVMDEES
T9 sequence (O15075 whole entry): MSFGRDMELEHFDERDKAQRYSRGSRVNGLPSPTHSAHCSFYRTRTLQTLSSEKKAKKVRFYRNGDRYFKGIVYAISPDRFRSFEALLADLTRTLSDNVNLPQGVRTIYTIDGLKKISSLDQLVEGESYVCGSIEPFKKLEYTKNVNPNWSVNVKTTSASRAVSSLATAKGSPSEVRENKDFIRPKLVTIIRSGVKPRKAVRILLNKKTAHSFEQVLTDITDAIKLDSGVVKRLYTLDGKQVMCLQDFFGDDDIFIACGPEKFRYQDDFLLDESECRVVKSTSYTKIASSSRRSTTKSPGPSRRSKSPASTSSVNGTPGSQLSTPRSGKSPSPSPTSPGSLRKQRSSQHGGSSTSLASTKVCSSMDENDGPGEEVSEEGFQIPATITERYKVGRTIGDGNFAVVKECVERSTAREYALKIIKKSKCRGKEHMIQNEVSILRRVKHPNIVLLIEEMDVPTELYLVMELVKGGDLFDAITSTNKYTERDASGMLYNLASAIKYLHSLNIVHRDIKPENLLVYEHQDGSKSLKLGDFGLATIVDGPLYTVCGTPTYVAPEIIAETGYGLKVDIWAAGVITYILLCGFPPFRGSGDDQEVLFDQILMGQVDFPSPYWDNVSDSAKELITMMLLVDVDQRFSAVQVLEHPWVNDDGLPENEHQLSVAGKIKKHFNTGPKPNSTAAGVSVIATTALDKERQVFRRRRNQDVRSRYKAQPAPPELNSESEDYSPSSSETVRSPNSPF

| SMILES | remaining binding at 1 µM [1] [%] | remaining binding at 1 µM [2] [%] | remaining binding at 1 µM [3] [%] | remaining binding at 1 µM [4] [%] | remaining binding at 1 µM [5] [%] | remaining binding at 1 µM [6] [%] | remaining binding at 1 µM [7] [%] | remaining binding at 1 µM [8] [%] | remaining binding at 1 µM [9] [%] | remaining binding at 1 µM [10] [%] | remaining binding at 1 µM [11] [%] | remaining binding at 1 µM [12] [%] | remaining binding at 1 µM [13] [%] |
| --- | --- | --- | --- | --- | --- | --- | --- | --- | --- | --- | --- | --- | --- |
| Cc1ccc(C(=O)Nc2ccc(CN3CCN(C)CC3)c(C(F)(F)F)c2)cc1C#Cc1cnc2c(Nc3cnn(C)c3)cccn12 [Example 1, 4-methyl-3-((8-((1-methyl-1H-pyrazol-4-yl)amino)imidazo[1,2-a]pyridin-3-yl)ethynyl)-N-(4-((4-methylpiperazin-1-yl)methyl)-3-(trifluoromethyl)phenyl)benzamide] | 87 | 2 | 1 | 95 | 85 | 3 | 1 | 4 | 54 | 0 | 89 | 3 | 100 |
| Cc1cn(-c2cc(NC(=O)c3ccc(C)c(C#Cc4cnc5c(Nc6cnn(C)c6)cccn45)c3)cc(C(F)(F)F)c2)cn1 [Example 12, 4-methyl-N-(3-(4-methyl-1H-imidazol-1-yl)-5-(trifluoromethyl)phenyl)-3-((8-((1-methyl-1H-pyrazol-4-yl)amino)imidazo[1,2-a]pyridin-3-yl)ethynyl)benzamide] | 100 | 26 | 37 | 100 | 98 | 9 | 11 | 29 | 91 | 19 | 95 | 56 | 100 |
| Cc1ccc(NC(=O)C2(C(=O)Nc3ccc(F)cc3)CC2)cc1C#Cc1cnc2c(Nc3cnn(C(C)C)c3)cccn12 [Example 78] | 93 | 27 | 100 | 100 | 100 | 96 | 59 | 100 | 95 | 100 | 100 | 34 | 100 |
